The record followed here is publication PMC9571711, “New Biologically Hybrid Pharmacophore Thiazolidinone-Based Indole Derivatives: Synthesis, In Vitro Alpha-Amylase and Alpha-Glucosidase along with Molecular Docking Investigations” (Molecules, 2022).

Broadly, the IC50 is the concentration at which inhibition is half-maximal. A high value points to a need for much substance. By melting point is commonly meant the temperature, or range, at which the solid turns liquid.

The target in series [1] is crude intestinal α-glucosidase. Briefly: In vitro alpha-glucosidase inhibition (p-nitrophenyl-α-D-glucopyranoside). The series is classed as biochemical. The conditions noted are these: ± SEM. The procedure: 3.6. Alpha-glucosidase inhibition protocol
α-Glucosidase inhibitory activities was determined as per reported methods. 10 μL of test samples (5 mg/mL DMSO solution) were altered in 100 μL of 100 mM-phosphate buffer (pH 6.8) in 96-well microplate and incubated with 50 μL of crude intestinal α-glucosidase for 5 min before 50μL substrate (5 mM, p-nitrophenyl-α-D-glucopyranoside prepared in same buffer) was […]
plus384) for 5 min after incubation with substrate. Individual blanks for test samples were prepared to correct background absorban ce where substrate was replaced with 50μL of buffer.
Control sample contained 10 μL DMSO in place of test samples. Percentage of enzyme inhibition was calculated as (1-B/A) x 100 where A represents absorbance of control without test samples, and B represents absorbance in presence of test samples. […]

Regarding `O=C1N/C(=N/c2nccs2)S/C1=C\c1cc2[nH]ccc2c(Cl)c1[N+](=O)[O-]` [Compound 3], the melting point was in the range of 235 to 237 °C. Moreover, the IC50 in series [1] turned out to be 8.7 ± 0.2 µM.

Take `O=C1N/C(=N/c2nccs2)S/C1=C/c1cc(F)c2cc[nH]c2c1` [Compound 4, (2Z,5E)-5-((4-fluoro-1H-indol-6-yl)methylene)-2-(thiazol-2-ylimino)thiazolidin-4-one]: the melting point was 237 to 239 °C. Moreover, 2.7 ± 0.7 µM corresponded to half-maximal inhibition in series [1] (IC50).

As to `O=C1NC(=Nc2nccs2)SC1=Cc1cc2[nH]ccc2cc1F` [Compound 5, (2Z,5E)-5-((5-fluoro-1H-indol-6-yl)methylene)-2-(thiazol-2-ylimino)hiazolidine-4-one], the melting point lay within 234 to 236 °C.

The compound `O=C1N/C(=N/c2nccs2)S/C1=C\c1cc(C(F)(F)F)c2cc[nH]c2c1O` [Compound 6] yielded a melting point of 238 to 240 °C. The concentration for half-maximal inhibition (IC50) in series [1] was determined as 4.5 ± 0.7 µM.

As for `O=C1N/C(=N/c2nccs2)S/C1=C\c1cc(O)c2cc[nH]c2c1O` [Compound 7], the melting point fell in the range of 238 to 241 °C. In series [1], this compound showed a half-inhibitory concentration (IC50) of 3.5 ± 0.8 µM.

Take `COc1cc2cc[nH]c2c(O)c1/C=C1\S/C(=N\c2nccs2)NC1=O` [Compound 8]: the melting point lay within 238 to 241 °C. The concentration for half-maximal inhibition (IC50) in series [1] stood at 8.7 ± 0.8 µM.

`CN(C)c1cc(/C=C2\S/C(=N\c3nccs3)NC2=O)cc2[nH]ccc12` [Compound 9] came in with a melting point of 234 to 237 °C. This compound also displayed an IC50 in series [1] of 23.2 ± 0.4 µM.

`N#Cc1cc(/C=C2\S/C(=N\c3nccs3)NC2=O)cc2[nH]ccc12` [Compound 10] showed a melting point of 239 to 242 °C. This compound returned an IC50 in series [1] of 24.6 ± 0.2 µM.

The compound `O=C1N/C(=N/c2nccs2)S/C1=C\c1c(O)cc2cc[nH]c2c1Cl` [Compound 11] returned a melting point of 236 to 239 °C. This compound came in with an IC50 in series [1] of 7.85 ± 0.2 µM.

Compound `O=C1N/C(=N/c2nccs2)S/C1=C\c1cc(O)c2cc[nH]c2c1Cl` [Compound 12] registered a melting point of 236 to 239 °C. The concentration for half-maximal inhibition (IC50) in series [1] is 9.1 ± 0.3 µM.

Turning to `O=C1N/C(=N/c2nccs2)S/C1=C\c1cc2[nH]ccc2c(Cl)c1Cl` [Compound 14], the melting point lay within 231 to 233 °C. The compound also had an IC50 in series [1] of 13.5 ± 0.4 µM.

`O=C1N/C(=N/c2nccs2)S/C1=C\c1cc2[nH]ccc2c(Cl)c1Br` [Compound 15] registered a melting point of 241 to 243 °C. The compound also came in with an IC50 in series [1] of 28.4 ± 0.8 µM.

On to `O=C1N/C(=N/c2nccs2)S/C1=C\c1cc(Br)c2cc[nH]c2c1Cl` [Compound 16], for which the melting point is 240 to 242 °C. The compound further had an IC50 in series [1] of 26.7 ± 0.3 µM.

Consider `Cc1c(Br)c(/C=C2\S/C(=N\c3nccs3)NC2=O)cc2[nH]ccc12` [Compound 17], for which the melting point is 242 to 245 °C. The IC50 in series [1] was found to be 31.5 ± 0.5 µM.

Take `Cc1c(/C=C2\S/C(=N\c3nccs3)NC2=O)cc2[nH]ccc2c1Br` [Compound 18]: the melting point was 239 to 242 °C. For the same compound, in series [1], half-maximal inhibition (IC50) required 23.3 ± 0.4 µM.

Regarding `O=C1N/C(=N/c2nccs2)S/C1=C\c1cccc(O)c1` [Compound 19], the half-maximal inhibitory concentration (IC50) in series [1] amounted to 19.8 ± 0.6 µM.

Consider `O=C1N/C(=N/c2nccs2)S/C1=C\c1c(O)cc2cc[nH]c2c1Br` [Compound 20, (2Z,5Z)-5-((7-bromo-5-hydroxy-1H-indol-6-yl)methylene)-2-(thiazol-2-ylimino)thiazolidin-4-one], for which the melting point was in the range of 234 to 237 °C. Besides, the IC50 in series [1] was 29.4 ± 0.9 µM.
